# Data as given in patent US20250115648A1 (priority 2013, published 2025).
# Key:
# U87 flank xenografts = test system: U87 flank xenografts; parameters: species or system mice; conditions: mouse, in vivo
# [1] = mouse, in vivo
# [2] = cited from earlier work; for Peak Abs.: peak absorbance wavelength of exemplary fluorescent reporter molecule; for Peak Em.: peak emission wavelength of exemplary fluorescent reporter molecule
# CD-1 mice = test: Activity level of CD-1 mice after injection of free peptides; conditions: high dose (200 nmol), IV, starting 3 minutes post injection
Compound,Peak Abs. [2] [nanometers],Peak Em. [2] [nanometers],also measured
"CC1(C)C(/C=C/C=C/C=C/C=C2\N(CCCCS(=O)(=O)[O-])c3ccc4ccccc4c3C2(C)C)=[N+](CCCCS(=O)(=O)[O-])c2ccc3ccccc3c21.[Na+] [ICG free dye, Cardiogreen (ICG)]",,,"Targeting / detection in tumor tissue (U87 flank xenografts): not detected; Detection in fecal matter [1]: detectable in the fecal matter; Detection in liver, kidney, spleen, or brain [1]: not detectable"
CN1/C(=C/c2cc[n+](CCC[N+](C)(C)CCC[N+](C)(C)CCC[n+]3ccc(/C=C4/Oc5ccccc5N4C)cc3)cc2)Oc2ccccc21.[I-].[I-].[I-].[I-] [POPO-1],434,456,
Chlorotoxin [KNT-01],,,"Activity level after free peptide injection (CD-1 mice): decrease in activity level, somnolence, and prostration"
CC1=CC(C)(C)N(C)c2cc3[o+]c4cc5c(cc4c(-c4cc(NC(=O)c6ccc(CCl)cc6)ccc4C(=O)[O-])c3cc21)C(C)=CC(C)(C)N5C.CC1=CC(C)(C)N(C)c2cc3[o+]c4cc5c(cc4c(-c4ccc(NC(=O)c6ccc(CCl)cc6)cc4C(=O)[O-])c3cc21)C(C)=CC(C)(C)N5C [CellTracker Red CMTPX],584,613,
CC1(C)C=C(CS(=O)(=O)O)c2cc3c(C(F)(F)F)cc(=O)oc3cc2N1CCCCCC(=O)ON1C(=O)CCC1=O.CCN(CC)CC [Alexa Fluor 430],,540,
TOTO-3,642,661,
CN1C(=Cc2cc[n+](CCC[N+](C)(C)CCC[N+](C)(C)CCC[n+]3ccc(C=C4Sc5ccccc5N4C)cc3)cc2)Sc2ccccc21.[I-].[I-].[I-].[I-] [BOBO-1],570,602,
O=C(COc1ccc(C2=[N+]3C(=Cc4ccc(-c5cccs5)n4[B-]3(F)F)C=C2)cc1)NCCCCCC(=O)ON1C(=O)CCC1=O [Bodipy TR-X],588,621,
CN(C)CCNC(=O)CCc1ccc2n1[B-](F)(F)[N+]1=C(c3ccc[nH]3)C=CC1=C2 [LysoTracker Red],573,592,
carboxy-X-rhodamine [ROX (6-ROX)],568,595,
CC(=O)Oc1ccc2c(c1)Oc1cc(OC(C)=O)ccc1C21OC(=O)c2cc(CCl)ccc21 [CellTracker Green],490,540,
CCN(CC)c1ccc2c(-c3ccc(S(=O)(=O)NCCCCCC(=O)O)cc3S(=O)(=O)[O-])c3ccc(=[N+](CC)CC)cc-3oc2c1 [rhodamine Red-X],572,591,
CCCCCCCCCCCC[N+](C)(CCCS(=O)(=O)[O-])Cc1ccc2oc(-c3ccc(N(CC)CC)cc3)c(O)c(=O)c2c1 (centres unmarked) [Compound F2N12S],405,,
CCN1C(=CC=CC2=[N+](CCCCCC(=O)O)c3ccc(S(=O)(=O)O)cc3C2(C)C)C(C)(C)c2cc(S(=O)(=O)[O-])ccc21 [Cy3],552,570,
CC[N+]1=c2cc3c(cc2C(CS(=O)(=O)O)=CC1(C)C)=Cc1cc2c(cc1C3(C)C)N(CCCC(=O)O)C(C)(C)CC2C.[O-][Cl+3]([O-])([O-])[O-] (centres unmarked) [ATTO 647],644,670,
Allophycocyanin [APC (Allophycocyanin)],651,660,
"Cc1c(CC(=O)O)c(=O)oc2cc(N)ccc12 [AMCA, aminomethylcoumarin]",345,425,
CCCCCCCCCCCCCCCCCCN1/C(=C/C=C/C=C/C2=[N+](CCCCCCCCCCCCCCCCCC)c3ccccc3C2(C)C)C(C)(C)c2ccccc21.[O-][Cl+3]([O-])([O-])[O-] [DiD (Vybrant DiD)],645,670,
"CC(=O)Oc1cc2c(cc1Cl)C(c1ccccc1C(=O)O)c1cc(Cl)c(OC(C)=O)cc1O2 [H2DCFDA (H2-DCF, DCFR)]",504,540,
ClCc1ccc(C2=c3cc4c5c(c3Oc3c2cc2c6c3CCCN6CCC2)CCC[N+]=5CCC4)cc1.[Cl-] [MitoTracker Red CMXRos],578,597,
CCCCCCCCCCCCCCCCCCN1/C(=C\C=C\c2oc3ccccc3[n+]2CCCCCCCCCCCCCCCCCC)Oc2ccccc21.[O-][Cl+3]([O-])([O-])[O-] [DiO (Vybrant DiO)],489,506,
O=C(O)CCCCCNc1ccc([N+](=O)[O-])c2nonc12 [NBD-X],467,538,
CCN1C(=CC=CC=CC=CC2=[N+](CCCCCC(=O)O)c3ccc(S(=O)(=O)O)cc3C2(C)C)C(C)(C)c2cc(S(=O)(=O)[O-])ccc21 [Cy7],745,766,
